In one assay the test system is A549 cancer cell line. The assay is described as follows: In vitro cytotoxicity, Alamar blue cell viability, A549. Format: cell-based. The settings on record: 24 hr. (Alamar Blue is a resazurin reagent that responds to reducing activity.)
The subject of a further assay is AsPC-1 cancer cell line. The assay is described as follows: In vitro cytotoxicity, Alamar blue cell viability, AsPC-1. The assay is classed as cell-based. The settings on record: 24 hr.
The next assay has as its system Huh-7 cancer cell line. The assay can be described thus: In vitro cytotoxicity, Alamar blue cell viability, Huh-7. Format: cell-based. The settings on record: 24 hr.
Another assay concerns H460 cancer cell line. The assay can be described thus: In vitro cytotoxicity, Alamar blue cell viability, NCI-H460. The assay is classed as cell-based. The settings on record: 24 hr.
Assay [1] deals with MDA-MB-231 cancer cell line. The assay can be described thus: In vitro cytotoxicity, Alamar blue cell viability, MDA-MB-231. The assay is classed as cell-based. The settings on record: 24 hr.
Another assay deals with SARS-COV-2 PLpro (Severe acute respiratory syndrome coronavirus 2, UniProt P0DTD1). The assay is classed as biochemical. The settings on record: Example 1; 50 μM; FIG. 2 and Table 2.
Another assay relates to HCT-116 cancer cell line. The assay is described as follows: In vitro cytotoxicity, Alamar blue cell viability, HCT-116. The assay is classed as cell-based. The settings on record: 24 hr.
For the next assay, the system named is SARS-COV-2. The settings on record: Example 2; intranasal 0.35 mg/kg twice daily, 3-day treatment; FIG. 3.
Another assay has as its system SKOV-3 cancer cell line. The assay can be described thus: In vitro cytotoxicity, Alamar blue cell viability, SK-OV-3. Format: cell-based. The settings on record: 24 hr.

Each structure is given as a SMILES string.

Experimental for SARS-COV-2 PLpro: The enzymatic activity of SARS-COV-2 PLpro obtained above was measured by a colorimetry-based peptide cleavage assay, using the 6-mer peptide substrate, FRLKGG-para-nitroanilide (FG6-pNA) (purity 97% by HPLC; GL Biochem Ltd., Shanghai, China). In the cleavage assay, the 6-mer peptide substrate was cleaved at the Gly-pNA bond to release free pNA, which turned the color of the solution to yellow. The enzymatic activity was determined by continuously monitoring the absorbance at 405 nm (A405) using a 96-well microplate spectrophotometer (Epoch™ 2, Biotek) at 30° C.
An enzyme inhibition assay was performed in a 96-well microplate. Each of the wells of the microplate contained a 50 mM phosphate buffer (pH 7.4). SARS-COV-2 PLPro obtained above (0.9 μM) was added into the respective well to form an enzyme solution. […]
20 μL of FG6-pNA (1.2 mM) described above was added into the test mixture of the respective group to initiate the enzyme reaction. […] The enzymatic activity was determined by continuously monitoring the absorbance at 405 nm (A405) using a 96-well microplate spectrophotometer (Epoch™ 2, Biotek). The reaction rate was calculated accordingly, wherein the reaction rate is the slope of the absorbance A405 versus time (seconds) for a total reaction time of 300 seconds.
The inhibition percentage was calculated using the following equation: […]

A word on the IC50: it is the midpoint of a concentration-inhibition curve. In the case of `CC1=C(/C=C/C(C)=C/C=C/C(C)=C\C(=O)NCCCO[C@@H]2O[C@H](CO)[C@H](O)[C@H](O)[C@H]2O)C(C)(C)CCC1` [Galactose-modified isotretinoin, (2Z,4E,6E,8E)-3,7-Dimethyl-N-(3-(((2R,3R,4S,5R,6R)-3,4,5-Trihydroxy-6-(Hydroxymethyl)Tetrahydro-2H-Pyran-2-Yl)Oxy) Propyl)-9-(2,6,6-Trimethylcyclohex-1-En-1-Yl) Nona-2,4,6,8-Tetraenamide], the cell viability entry with A549 cancer cell line (A549, FIG. 9) is on record as “significantly reduce”; in the assay on AsPC-1 cancer cell line (AsPC-1, FIG. 4), “significantly reduce”; in the assay on Huh-7 cancer cell line (Huh-7, FIG. 7), “significantly reduce”; in the assay with H460 cancer cell line (H460, FIG. 10) it was “significantly reduce”; in [1] (MDA-MB-231, FIG. 5) it was “significantly reduce”; in the assay with HCT-116 cancer cell line (HCT-116, FIG. 6), “significantly reduce”. In addition, the cell viability entry in the assay on SKOV-3 cancer cell line (SKOV-3, FIG. 8) was “significantly reduce”. The IC50 in the assay on A549 cancer cell line (Homo sapiens, A549, Non-small Cell Lung Cancer) came out at 21.9 µM; with AsPC-1 cancer cell line (Homo sapiens, ASPC1, AsPC-1, Pancreatic Cancer) it was 23 µM; in the assay on Huh-7 cancer cell line (Homo sapiens, Huh-7, Liver Cancer) it was 77.5 µM; in the assay with H460 cancer cell line (Homo sapiens, NCI-H460, Non-small Cell Lung Cancer) it was 22.9 µM; in assay [1] (Homo sapiens, MDA-MB-231, Breast Cancer), 116 µM; in the assay on HCT-116 cancer cell line (Homo sapiens, HCT-116, Colon Cancer) it was 123 µM. In the assay with SKOV-3 cancer cell line (Homo sapiens, SK-OV-3, Ovarian Cancer), this compound registered an IC50 of 13.8 µM. At SARS-COV-2 PLpro, the “inhibition rate compared with Comparative_1 (isotretinoin only)” value is on record as “significantly higher”. For the same compound, the “TCID50 (lung virus titer) compared with isotretinoin and liposome-encapsulated isotretinoin” value in the assay on SARS-COV-2 is “significantly lower”.

The record behind these values is patent US20240423942A1, “PHARMACEUTICAL COMPOSITION INCLUDING RETINOIC ACID AND CARBOHYDRATE AND USE THEREOF” (Mastery Biotech CO., LTD., priority 2022, published 2024).
